{"source": "patent US20080214399A1", "about": "“Enhanced amino acid formulations” (priority 2006, published 2008)", "system": "cotton cotyledons", "assay": "Cotton cotyledon bioassay: reduction of CPPU-induced ethylene production", "type": "in vivo, cotton (variety SG 105)", "settings": "CPPU (200 μM) alone, reference = 1.00", "description": "A cotton bioassay system has been used in the laboratory to study the effect of formulations on AVG performance. […] One spray application of CPPU (forchlorfenuron) is made to the bottom (abaxial) and AVG was subsequently applied to the top (adaxial) surface of the cotyledons. […] Water was used as the carrier. Further dilutions were prepared as needed for foliar applications. All the data was subject to an analysis of variance, and the mean separations were determined with Duncan's new multiple range test at α=0.05. The present invention may be illustrated by the following representative examples: […]"}
{"smiles": "O=C(Nc1ccccc1)Nc1ccnc(Cl)c1", "note": "[CPPU, forchlorfenuron]", "values": [{"measurement": "Reduction as compared to CPPU-treated", "value": 1.00}]}
